Test results as given in US10364256B2 (GlaxoSmithKline Intellectual Property Development Limited, priority 2015, dated 2019).

Legend:
[1] = target: T1, full length Keap1 protein / full length NRF2 protein (Homo sapiens, UniProt Q14145); assay: NRF2-Keap1 TR-FRET Assay; format: binding; conditions: 25 nM Keap1-FlagHis and 50 nM biotin-NRF2 added
T1 construct: full length NRF2 protein and full length Keap1 protein (Keap1 exists a dimer) are used; His
Procedure, shortened: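 Displacement of biotinylated full-length NRF2 from full-length Keap1 read by Eu/APC TR-FRET (665/615 nm) after 1 h detection at RT. Compound, 3-fold series, first incubated with Keap1 at 37 °C for 2.25 h, NRF2 then added at 4 °C for 1.25 h; pIC50 by four-parameter equation.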

[2] = target: T2, Keap1 Kelch domain (321-609) / TAMRA-labeled 16mer NRF2 peptide (ETGE motif) (Homo sapiens, UniProt Q14145); assay: NRF2-Keap1 FP Assay (Keap1 Kelch fluorescence polarization); format: binding; conditions: 20 nM Keap1 (321-609), 8 nM Tamra labeled peptide
T2 construct: the Kelch domain (321-609) of Keap1 is used
Procedure, shortened: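 Compound dilutions (3-fold) were incubated 1 hr at room temperature with 20 nM Keap1 Kelch (321-609) and 8 nM TAMRA-labeled ETGE 16mer peptide. Buffer was 50 mM Tris pH 8.0, 100 mM NaCl, 5 mM MgCl2, 1 mM DTT, 2 mM CHAPS, 0.005% BSA. Fluorescence polarization (mP) was normalized to controls and fitted with a four-parameter equation to give pIC50.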

T1 sequence (Q14145 whole entry): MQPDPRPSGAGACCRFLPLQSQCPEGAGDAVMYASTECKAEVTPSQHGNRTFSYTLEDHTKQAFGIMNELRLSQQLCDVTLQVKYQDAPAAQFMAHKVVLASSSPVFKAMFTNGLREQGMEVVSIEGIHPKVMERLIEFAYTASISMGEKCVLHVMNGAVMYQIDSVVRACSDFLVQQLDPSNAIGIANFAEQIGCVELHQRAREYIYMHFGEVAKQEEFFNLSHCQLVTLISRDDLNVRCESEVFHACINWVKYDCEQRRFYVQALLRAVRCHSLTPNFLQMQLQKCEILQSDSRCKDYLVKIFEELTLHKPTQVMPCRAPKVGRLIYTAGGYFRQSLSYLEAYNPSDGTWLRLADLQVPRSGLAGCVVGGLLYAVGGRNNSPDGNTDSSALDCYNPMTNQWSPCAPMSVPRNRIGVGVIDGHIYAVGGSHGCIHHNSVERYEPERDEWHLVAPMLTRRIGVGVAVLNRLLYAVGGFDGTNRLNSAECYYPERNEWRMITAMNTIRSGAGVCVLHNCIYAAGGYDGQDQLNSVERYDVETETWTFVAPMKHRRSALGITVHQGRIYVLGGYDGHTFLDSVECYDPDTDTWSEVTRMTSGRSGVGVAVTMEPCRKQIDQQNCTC
T2 sequence (Q14145 321-609): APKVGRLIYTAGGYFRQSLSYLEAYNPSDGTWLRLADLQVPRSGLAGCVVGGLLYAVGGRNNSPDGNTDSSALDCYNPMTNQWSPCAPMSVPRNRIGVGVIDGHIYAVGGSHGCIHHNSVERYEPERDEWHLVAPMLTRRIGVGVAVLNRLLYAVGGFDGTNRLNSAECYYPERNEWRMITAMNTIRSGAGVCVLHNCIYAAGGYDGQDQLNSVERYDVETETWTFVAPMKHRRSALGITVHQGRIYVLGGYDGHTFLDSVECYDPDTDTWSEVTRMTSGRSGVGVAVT

SMILES	IC50 [1] [nM]	IC50 [2] [nM]
Cn1cc([C@@H]2C[C@H]2c2c(C(=O)O)cnn2-c2cccc(-c3cccc(OCC4CCCSC4)c3)c2)nn1 (mixture of isomers) [Example 144, 5-((1,2-trans)-2-(1-Methyl-1H-1,2,3-triazol-4-yl)cyclopropyl)-1-(3′-((tetrahydro-2H-thiopyran-3-yl)methoxy)-[1,1′-biphenyl]-3-yl)-1H-pyrazole-4-carboxylic Acid]	100 to 1000	10 to 100
Cn1cc([C@@H]2C[C@H]2c2c(C(=O)O)cnn2-c2cccc(-c3cccc(OCC4CCC(F)(F)CC4)c3)c2)nn1 (racemic) [Example 145, 1-(3′-((4,4-Difluorocyclohexyl)methoxy)-[1,1′-biphenyl]-3-yl)-5-((1,2-trans)-2-(1-methyl-1H-1,2,3-triazol-4-yl)cyclopropyl)-1H-pyrazole-4-carboxylic acid]	100 to 1000	10 to 100
Cn1cc([C@@H]2C[C@H]2c2c(C(=O)O)cnn2-c2cccc(-c3cccc(OC[C@H]4CC[C@H](C(F)(F)F)CC4)c3)c2)nn1 (racemic) [Example 146, 5-((1,2-trans)-2-(1-Methyl-1H-1,2,3-triazol-4-yl)cyclopropyl)-1-(3′-(((1r,4R)-4-(trifluoromethyl)cyclohexyl)methoxy)-[1,1′-biphenyl]-3-yl)-1H-pyrazole-4-carboxylic acid]	100 to 1000	10 to 100
Cn1cc([C@@H]2C[C@H]2c2c(C(=O)O)cnn2-c2cccc(-c3cccc(OCC4CCCC(C(F)(F)F)C4)c3)c2)nn1 (mixture of isomers) [Example 147, 5-((1,2-trans)-2-(1-Methyl-1H-1,2,3-triazol-4-yl)cyclopropyl)-1-(3′-((3-(trifluoromethyl)cyclohexyl)methoxy)-[1,1′-biphenyl]-3-yl)-1H-pyrazole-4-carboxylic acid]	100 to 1000	100 to 1000
Cn1cc([C@@H]2C[C@H]2c2c(C(=O)O)cnn2-c2cccc(-c3cccc(OCC4CCCCC4C(F)(F)F)c3)c2)nn1 (mixture of isomers) [Example 148, 5-((1,2-trans)-2-(1-Methyl-1H-1,2,3-triazol-4-yl)cyclopropyl)-1-(3′-((2-(trifluoromethyl)cyclohexyl)methoxy)-[1,1′-biphenyl]-3-yl)-1H-pyrazole-4-carboxylic acid]	100 to 1000	10 to 100
Cn1cc([C@@H]2C[C@H]2c2c(C(=O)O)cnn2-c2cccc(-c3cccc(OCC4CCSCC4)c3)c2)nn1 (racemic) [Example 149, 5-((1,2-trans)-2-(1-Methyl-1H-1,2,3-triazol-4-yl)cyclopropyl)-1-(3′-((tetrahydro-2H-thiopyran-4-yl)methoxy)-[1,1′-biphenyl]-3-yl)-1H-pyrazole-4-carboxylic acid]	100 to 1000	100 to 1000
CCC1CCC(COc2cccc(-c3cccc(-n4ncc(C(=O)O)c4[C@@H]4C[C@H]4c4cn(C)nn4)c3)c2)CC1 (mixture of isomers) [Example 150, 1-(3′-((4-Ethylcyclohexyl)methoxy)-[1,1′-biphenyl]-3-yl)-5-((1,2-trans)-2-(1-methyl-1H-1,2,3-triazol-4-yl)cyclopropyl)-1H-pyrazole-4-carboxylic acid]	100 to 1000	100 to 1000
Cn1cc([C@@H]2C[C@H]2c2c(C(=O)O)cnn2-c2cccc(-c3cccc(OCC4CCCCC4)c3F)c2)nn1 (racemic) [Example 152, 1-(3′-(Cyclohexylmethoxy)-2′-fluoro-[1,1′-biphenyl]-3-yl)-5-((1,2-trans)-2-(1-methyl-1H-1,2,3-triazol-4-yl)cyclopropyl)-1H-pyrazole-4-carboxylic Acid]	100 to 1000	10 to 100
Cn1cc([C@@H]2C[C@H]2c2c(C(=O)O)cnn2-c2cccc(-c3cccc(OC(C4CCCCC4)C(F)(F)F)c3)c2)nn1 (mixture of isomers) [Example 157, 1-(3′-(1-Cyclohexyl-2,2,2-trifluoroethoxy)-[1,1′-biphenyl]-3-yl)-5-((1,2-trans)-2-(1-methyl-1H-1,2,3-triazol-4-yl)cyclopropyl)-1H-pyrazole-4-carboxylic Acid]	100 to 1000	100 to 1000

More lines, now with the values ahead:

IC50 [1] [nM]	IC50 [2] [nM]	SMILES
100 to 1000	10 to 100	CO[C@H]1CC[C@H](COc2cccc(-c3cccc(-n4ncc(C(=O)O)c4[C@H]4C[C@@H]4c4cn(C)nn4)c3)c2)CC1 (racemic) [Example 176, 1-(3′-(((1R,4S)-4-Methoxycyclohexyl)methoxy)-[1,1′-biphenyl]-3-yl)-5-((1,2-trans)-2-(1-methyl-1H-1,2,3-triazol-4-yl)cyclopropyl)-1H-pyrazole-4-carboxylic acid]
100 to 1000	100 to 1000	COC1CCCCC1COc1cccc(-c2cccc(-n3ncc(C(=O)O)c3[C@H]3C[C@@H]3c3cn(C)nn3)c2)c1 (mixture of isomers) [Example 177, 1-(3′-((2-Methoxycyclohexyl)methoxy)-[1,1′-biphenyl]-3-yl)-5-((1,2-trans)-2-(1-methyl-1H-1,2,3-triazol-4-yl)cyclopropyl)-1H-pyrazole-4-carboxylic acid]
100 to 1000	10 to 100	COC1CCCC(COc2cccc(-c3cccc(-n4ncc(C(=O)O)c4[C@H]4C[C@@H]4c4cn(C)nn4)c3)c2)C1 (mixture of isomers) [Example 178, 1-(3′-((3-Methoxycyclohexyl)methoxy)-[1,1′-biphenyl]-3-yl)-5-((1,2-trans)-2-(1-methyl-1H-1,2,3-triazol-4-yl)cyclopropyl)-1H-pyrazole-4-carboxylic acid]
100 to 1000	100 to 1000	Cn1cc([C@H]2C[C@@H]2c2c(C(=O)O)cnn2-c2cccc(-c3cccc(OC[C@H]4CC[C@H](Cl)CC4)c3)c2)nn1 (racemic) [Example 185, 1-(3′-((4-Chlorocyclohexyl)methoxy)-[1,1′-biphenyl]-3-yl)-5-((1,2-trans)-2-(1-methyl-1H-1,2,3-triazol-4-yl)cyclopropyl)-1H-pyrazole-4-carboxylic Acid]
100 to 1000	100 to 1000	Cn1cc([C@H]2C[C@@H]2c2c(C(=O)O)cnn2-c2cccc(-c3cccc(OCC4CCCC(Cl)C4)c3)c2)nn1 (mixture of isomers) [Example 187, 1-(3′-((3-chlorocyclohexyl)methoxy)-[1,1′-biphenyl]-3-yl)-5-((1,2-trans)-2-(1-methyl-1H-1,2,3-triazol-4-yl)cyclopropyl)-1H-pyrazole-4-carboxylic acid]
100 to 1000	10 to 100	CCn1cc([C@H]2C[C@@H]2c2c(C(=O)O)cnn2-c2cccc(-c3cccc(OC(C)C4CCCCC4)c3)c2)nn1 (mixture of isomers) [Example 192, 1-(3′-(1-cyclohexylethoxy)-[1,1′-biphenyl]-3-yl)-5-((1,2-trans)-2-(1-ethyl-1H-1,2,3-triazol-4-yl)cyclopropyl)-1H-pyrazole-4-carboxylic acid]
10 to 100	10 to 100	CCC[C@@H]1CCCCN1C(=O)c1cccc(-c2cccc(-n3ncc(C(=O)O)c3[C@H]3C[C@@H]3c3cn(CC)nn3)c2)c1 (racemic) [Example 201, 5-((1,2-trans)-2-(1-Ethyl-1H-1,2,3-triazol-4-yl)cyclopropyl)-1-(3′-((R)-2-propylpiperidine-1-carbonyl)-[1,1′-biphenyl]-3-yl)-1H-pyrazole-4-carboxylic acid]
10 to 100	10 to 100	CC(Oc1cccc(-c2cccc(-n3ncc(C(=O)O)c3[C@H]3C[C@@H]3c3cn(C)nn3)c2)c1)C1CCCCCC1 (mixture of isomers) [Example 230, 1-(3′-(1-Cycloheptylethoxy)-[1,1′-biphenyl]-3-yl)-5-((1,2-trans)-2-(1-methyl-1H-1,2,3-triazol-4-yl)cyclopropyl)-1H-pyrazole-4-carboxylic acid]
1000 to 10000	100 to 1000	Cn1cc([C@H]2C[C@@H]2c2c(C(=O)O)cnn2-c2cccc(-c3cccc(OCc4ccc(-c5ccccc5)cc4)c3)c2)nn1 (racemic) [Example 237, 1-(3′-([1,1′-Biphenyl]-4-ylmethoxy)-[1,1′-biphenyl]-3-yl)-5-((1,2-trans)-2-(1-methyl-1H-1,2,3-triazol-4-yl)cyclopropyl)-1H-pyrazole-4-carboxylic Acid]
1000 to 10000	100 to 1000	Cn1cc([C@H]2C[C@@H]2c2c(C(=O)O)cnn2-c2cccc(-c3cccc(OCc4cccc(-c5ccccc5)c4)c3)c2)nn1 (racemic) [Example 238, 1-(3′-([1,1′-Biphenyl]-3-ylmethoxy)-[1,1′-biphenyl]-3-yl)-5-((1,2- trans)-2-(1-methyl-1H-1,2,3-triazol-4-yl)cyclopropyl)-1H-pyrazole-4-carboxylic acid]
100 to 1000	100 to 1000	CC(Oc1cccc(-c2cccc(-n3ncc(C(=O)O)c3[C@H]3C[C@@H]3c3cn(C)nn3)c2)c1)c1cccc(-c2ccccc2)c1 (mixture of isomers) [Example 239, 1-(3′-(1-([1,1′-Biphenyl]-3-yl)ethoxy)-[1,1′-biphenyl]-3-yl)-5-((1,2-trans)-2-(1-methyl-1H-1,2,3-triazol-4-yl)cyclopropyl)-1H-pyrazole-4-carboxylic Acid]
1000 to 10000	100 to 1000	CC(Oc1cccc(-c2cccc(-n3ncc(C(=O)O)c3[C@H]3C[C@@H]3c3cn(C)nn3)c2)c1)c1ccc(-c2ccccc2)cc1 (mixture of isomers) [Example 240, 1-(3′-(1-([1,1′-Biphenyl]-4-yl)ethoxy)-[1,1′-biphenyl]-3-yl)-5-((1,2- trans)-2-(1-methyl-1H-1,2,3-triazol-4-yl)cyclopropyl)-1H-pyrazole-4-carboxylic acid]
